Experimental findings from patent US12329801B2, “Regenerative polypeptides and uses thereof” (JUVENA THERAPEUTICS, INC., priority 2021, dated 2025) are described below.

For one data set, the system named is DM1 human myoblast. As to the kind of experiment: Myogenic gene expression fold change in DM1 human myoblast. Format: cell-based. Conditions: 48 h; BMP7 50 ng/mL, Butyrate 100 nM, IGF2 200 ng/mL. How it is done:
Myoblasts were cultured 48 h in the presence of factors (BMP7 50 ng/mL, Butyrate 100 nM, IGF2 200 ng/mL).
Myoblasts were cultured 96 h in the presence of factors (IGF2 200 ng/ml). […] Myoblasts were cultured 48 h in the presence of factors (IGF2 200 ng/mL).
IGF2 was tested individually for its ability to promote proliferation and/or fusion of human muscle progenitor cells from an individual with myotonic dystrophy type 1 (hMD)—a muscular dystrophy caused by mutations in the DMPK1 gene. The effect of IGF2 on myogenic activity was assayed in biological triplicate across a range of concentrations centered around expected physiological levels by adding each factor to hMD myoblasts for 72 hours with daily media changes (DMEM +2% horse serum) and a second pulse of factors at the first media change. After 72 or 96 hours, cells were pulsed for 2-5 hours with EdU (30 uM), ethanol fixed, stained with Hoescht 3342, immunostained for proliferation—as measured by the percent of cells staining positive for EdU (% EdU)-, and immunostained for differentiation—as measured by the increase in cellular area staining positive for embryonic myosin heavy chain (% eMyHC) relative to the negative controls, which received media and vehicle only. Wells were imaged on a Keyence BZ-100 at 4×, the images quantified in Cell Profiler, and the statistics were computed in R. Additionally, RNA was extracted from myoblast and select transcript abundances quantified by qPCR.

Data set [1] can be described thus: Backbone cleavage on expression from CHO cells (reducing SDS-PAGE, Western blot). Further details: species or system Chinese Hamster. Conditions: expressed from CHO cells. How it is done:
The amino acid backbone of IGF2 is cleaved when expressed from Chinese Hamster Ovary (CHO) cells (FIG. 13A) as visualized on a reducing SDS-PAGE and Western blot (FIG. 13B). The CHO cells were grown in a 37° C. incubator with a humidified atmosphere of 8% CO2 on an orbital shaker platform with a shaking speed 125 rpm to reach 4E6 cells/mL, followed by transferring the calculated volume of cells to fresh, pre-warmed ExpiCHO™ Expression Medium in a shake flask. Incubated flasks in a 37° C. incubator with a humidified atmosphere of 8% CO2 shook on an orbital shaker platform until cultures reached a density of 4×106−6×10^6 viable cells/mL.
After mixing each plasmid with 100 ul SFM in a microtube; ExpiFectamine (8 ul ×10.5=84 ul) with OptiPro medium (92 ul×10.5=966 ul) in a microtube; adding 100 ul into the plasmid tube and mix by pipetting; After 5 min, add 200 ul into each well and swirl to mix. mix enhancer (15×10.2=153 ul) with feed ([…]), add 615 ul into each well. Culture supernatant collected at intervals was spun down at low speed and high speed, then frozen at −80 deg. Aliquots were analyzed for protein concentration by nanodrop, and then an equivalent amount loaded onto 4-12% SDS-PAGE gels for molecular weight distribution analysis. […]
(In general: In western blotting, separated proteins are transferred to a membrane and probed.)

A short description of data set [2]: Murine pharmacokinetics, intravenous, ELISA, non-compartment analysis. The note with it: mice 10-12 weeks old, dose 10 mg/kg (HSA-IGF2R61A), 600 ug/kg (IGF2). Type of data set: in vivo, mice. How it is done: Murine pharmacokinetics (PK) represents the absorption, distribution, metabolism, and elimination of drugs from the body. The pharmacokinetic profile of the therapeutic polypeptides were determined in mice (10-12 weeks old). Mice were fed ad libitum and housed under controlled conditions of lighting (12-hour light/12-hour dark) and temperature (22-24° C.). Mice were allowed to acclimate for 3 days prior to the initiation of the experiment. Intravenous (IV) injection in 10-12 weeks old mice. Engineered mitogenic polypeptides concentrations in the samples were measured by ELISA. Various pharmacokinetics will be calculated as well as the absorption/elimination dynamics following different routes of administration.

The subject of the next data set is Aged human myoblasts. As to the kind of experiment: Myogenic transcription factor expression in aged human myoblasts (qPCR). Type of data set: cell-based. The procedure:
RNA was isolated from each well (RNeasy Mini Kit, Qiagen) and cDNA was obtained by reverse-transcription (High Capacity Reverse Transcription Kit, Thermo Fisher Scientific). Real-time quantitative PCR was performed using QuantStudio3 (Thermo Fisher).
Aged human myoblasts were cultured in well plates. […] Cells that had been cultured with IGF2 had increases in levels of MYOG at 48 hours and levels of MYOD at 72 hours.
(In general: In qPCR the cycle at which signal appears reflects the starting amount.)

Data set [3] has as its system 10 week old dystrophic mice (mdx). The data set is described as follows: Duchenne muscular dystrophy model, 10 week old dystrophic mice (mdx). The note with it: 150 μg/kg with 1.2 g/kg sodium butyrate subcutaneously every 24 hours. Format: in vivo. The procedure:
Between 3-6 weeks old, the skeletal muscle of mdx mice undergoes severe necrosis followed by an increase in the activation of satellite cells to promote muscle regeneration. Treatment with IGF2 fusion polypeptide described herein can improve the regeneration process and therefore muscle health. Mice were fed ad libitum and housed under controlled conditions of lighting (12-hour light/12-hour dark) and temperature (22-24° C.). Mice were allowed to acclimate for 3 days prior to the initiation of the experiment. During the acclimation period, the weight, forelimb and both limb grip strength as well as in vivo tetanic force were assessed to determine the baseline strength of each mouse. 10 week old dystrophic mice (mdx) were injected with the IGF2 fusion polypeptide with sodium butyrate subcutaneously for 14 days. At day 7, forelimb and both grip strength are measured as described in Example 4. BrdU was injected on days 12, 13 and 14. On days 13, 14 and 15, forelimb and both limb grip strength and in vivo tetanic force were tested, and an endurance test to determine max distance and max speed was performed using methods described in Example 4.
Mice were euthanized. The right tibialis anterior and gastrocnemius were collected, immersed in Tissue-TEK OCT and then flash frozen in a chilled isopentane bath precooled in liquid nitrogen and stored at −80° C. Tissue was sectioned and stained for Laminin to determine the cross sectional area (CSA) of muscle fibers, for eMyHC to measure new fiber formation and for BrdU to assess the proliferation rate. The left anterior tibialis and gastrocnemius were collected and flash frozen in liquid nitrogen for molecular analysis that include qPCR and western blot.

Consider “IGF2: Human IGF2 amino acid sequence, SEQ ID NO: 29”, for which, in the data set on DM1 human myoblast, the “MYF5 expression fold change compared to FM (vehicle)” value turned out to be 0.730, the “MYOD1 expression fold change compared to FM (vehicle)” value is recorded as 1.252 and the “MYOG expression fold change compared to FM (vehicle)” value stood at 2.972. Besides, in data set [1], the “cleavage of the IGF2 amino acid backbone” value is given as “is cleaved”. Further, the Half-life in data set [2] turned out to be 2.85 h. Also, in the data set with Aged human myoblasts (48 h), the MYF5 fold change is reported as 0.409, the MYOD1 fold change stood at 0.519 and the MYOG fold change was determined as 5.756. For the same substance, in the data set on Aged human myoblasts (72 h), the MYF5 fold change stood at 0.708, the MYOD1 fold change is reported as 5.723 and the MYOG fold change turned out to be 0.018. Also, in data set [3], the bothlimb grip strength entry is on record as “effective at improving”, the forelimb grip strength result is reported as “effective at improving”, the total work result was “effective at improving” and the treadmill running distance result was “effective at improving”. For the same substance, the “treadmill running time to exhaustion” value in data set [3] was “effective at improving”. The muscle weight result in data set [3] (vs vehicle) is on record as “effective at improving”.
